From patent publication US11865129B2, “Application of anemoside B4 in preparation of a drug for treatment or prevention of psoriasis” (GUANGXI XINHAI PHARMACEUTICAL TECHNOLOGY CO., LTD., priority 2021, dated 2024)

What was measured:
[1] = system: IL-17; assay: IL-17 level in skin tissue, psoriasis model mice; assay type: in vivo, BALB/c male mice; conditions: 12 days, compared with model control group
Method: (§1) A shaving area on the back of the mice in each group is 2.5 cm×3 cm, and the vellus is removed with mild depilatory cream. The mice of each group except the blank control group are modeled by administrating 62.5 mg 5% imiquimod cream on the shaving area until the skin is thickened and has erythema and silver scales for modeling completely. During the model establishment, 5% imiquimod cream is administrated once a day, and continuously administrated for 14 days. On the third day, the model establishment is continued and drugs are administered at the same time, wherein the mice in the AC intragastric administration group (8 mg/kg), the anemoside B4 intragastric (i.g.) administration group (5 mg/kg), the anemoside B4 intragastric administration group (10 mg/kg), and the anemoside B4 intragastric administration group (20 mg/kg) are administrated once a day, and continuously administrated for 12 days. […] The mice in the blank control group and the model control group are applied 62.5 mg Vaseline to the skin lesions once a day, and continuously applied for 12 days. The weight of the mice is recorded for counting the weight change of the mice. 100 mg skin tissue of the mice in each group of the first animal group are precisely weighed, added 0.9 mL ice normal saline, homogenized with the tissue grinder, and centrifuged at 4° C. and 3000 rpm for 10 min. The supernatant is collected, and IL-12, IL-17, IL-6 and IL-1β level in the skin tissue are measured by kits according to the procedures of specification.

[2] = system: IL-17; assay: IL-17 level in serum by ELISA, psoriasis model rats; assay type: in vivo, SD male rats; conditions: 7 days, vs model control group
Method: (§2) 60 SPF-grade SD male rats in the second animal group are divided into 6 groups: a blank control group, a model control group, an anemoside B4 intragastric administration group (5 mg/kg), an anemoside B4 intragastric administration group (10 mg/kg), an anemoside B4 intragastric administration group (20 mg/kg), and an acitretin intragastric administration group (5 mg/kg), and are respectively expressed into the blank control group, the model group, anemoside B4 5 mg/kg, anemoside B4 10 mg/kg, anemoside B4 20 mg/kg, and acitretin 5 mg/kg in FIGS. 3, 4 and 5 for convenience. A shaving area on the back of the rats in each group is 2.5 cm×3 cm, and the vellus is removed with mild depilatory cream. The rats of each group except the blank control group are modeled by administrating 62.5 mg 5% imiquimod cream on the shaving area until the skin is thickened and has erythema and silver scales for modeling completely.
(§3) 5% imiquimod cream is administrated once a day, and continuously administrated for 8 days for model establishment. On the second day, the rats in each group are continuously intragastric (i.g.) administered drugs for 7 days.
(§4) After administration, blood is taken from abdominal aorta of the rats in each group of the second animal group, centrifuged to collect the serum, and measured the M-CSF, VEGF, IL-6 and IL-17 level in the serum by ELISA kits according to the procedures of specification.

[3] = system: 5% imiquimod-induced psoriatic lesions; assay: Psoriatic lesions and PASI, 5% imiquimod-induced psoriasis model in mice (first animal group); assay type: in vivo, BALB/c male mice; conditions: for skin lesions of the mice: 12 days
Method: as §1, with “mice.” for “mice. 100 mg skin tissue of the mice in each group of the first animal group are precisely weighed, added 0.9 mL ice normal saline, homogenized with the tissue grinder, and centrifuged at 4° C. and 3000 rpm for 10 min. The supernatant is collected, and IL-12, IL-17, IL-6 and IL-1β level in the skin tissue are measured by kits according to the procedures of specification.”

[4] = system: IL-12; assay: IL-12 level in skin tissue, psoriasis model mice; assay type: in vivo, BALB/c male mice; conditions: 12 days, compared with model control group
Method: as §1

[5] = system: IL-6; assay: IL-6 level in skin tissue, psoriasis model mice; assay type: in vivo, BALB/c male mice; conditions: 12 days, compared with model control group
Method: as §1

[6] = system: M-CSF; assay: M-CSF level in serum by ELISA, psoriasis model rats; assay type: in vivo, SD male rats; conditions: 7 days, vs model control group
Method: as §2, §3, §4

[7] = system: IL-1β; assay: IL-1β level in skin tissue, psoriasis model mice; assay type: in vivo, BALB/c male mice; conditions: 12 days, compared with model control group
Method: as §1

[8] = system: white blood cell (WBC), Neutrophilicgranulocyte (Neu) and Lymphocyte (Lym); assay: Blood analysis (blood routine tester), psoriasis model mice; assay type: in vivo, BALB/c male mice; conditions: 12 days, compared with model control group
Method: as §1, with “Eyeball blood” for “100 mg skin tissue”, “is drawn on the last day, and measured the level of white blood cell (WBC), […] (Neu) and Lymphocyte (Lym) in blood” for “are precisely weighed, added 0.9 mL ice normal saline, homogenized”, “blood routine tester.” for “tissue grinder, and centrifuged at 4° C. and 3000 rpm for 10 min. The supernatant is collected, and IL-12, IL-17, IL-6 and IL-1β level in the skin tissue are measured by kits according to the procedures of specification.”

[9] = intragastric 5 mg/kg once a day
[10] = intragastric 10 mg/kg once a day
[11] = intragastric 20 mg/kg once a day

C=C(C)[C@@H]1CC[C@]2(C(=O)O[C@@H]3O[C@H](CO[C@@H]4O[C@H](CO)[C@@H](O[C@@H]5O[C@@H](C)[C@H](O)[C@@H](O)[C@H]5O)[C@H](O)[C@H]4O)[C@@H](O)[C@H](O)[C@H]3O)CC[C@]3(C)[C@H](CC[C@@H]4[C@@]5(C)CC[C@H](O[C@@H]6OC[C@H](O)[C@H](O)[C@H]6O[C@@H]6O[C@@H](C)[C@H](O)[C@@H](O)[C@H]6O)[C@@](C)(CO)[C@@H]5CC[C@]43C)[C@H]12 [anemoside B4]
level of IL-17 in the skin tissue [1, 9]: significantly reduced
level of IL-17 in the skin tissue [1, 10]: significantly reduced
level of IL-17 in the skin tissue [1, 11]: significantly reduced
IL-17 level in serum ([2]; intragastric 5 mg/kg): significantly decreased
IL-17 level in serum ([2]; intragastric 10 mg/kg): significantly decreased
IL-17 level in serum ([2]; intragastric 20 mg/kg): significantly decreased
improvement of the skin lesions, compared with the acitretin capsules (AC) intragastric administration group ([3]; anemoside B4 groups, doses not specified): better
skin lesions of the mice [3, 9]: significantly improved
skin lesions of the mice [3, 10]: significantly improved
skin lesions of the mice [3, 11]: significantly improved
level of IL-12 in the skin tissue [4, 9]: significantly reduced
level of IL-12 in the skin tissue [4, 10]: significantly reduced
level of IL-12 in the skin tissue [4, 11]: significantly reduced
level of IL-6 in the skin tissue [5, 9]: significantly reduced
level of IL-6 in the skin tissue [5, 10]: significantly reduced
level of IL-6 in the skin tissue [5, 11]: significantly reduced
M-CSF level in serum ([6]; intragastric 5 mg/kg): significantly decreased
M-CSF level in serum ([6]; intragastric 10 mg/kg): significantly decreased
M-CSF level in serum ([6]; intragastric 20 mg/kg): significantly decreased
level of IL-1β in the skin tissue [7, 9]: significantly reduced
level of IL-1β in the skin tissue [7, 10]: significantly reduced
level of IL-1β in the skin tissue [7, 11]: significantly reduced
Lym in blood [8, 9]: significantly decreased
Neu in blood [8, 9]: significantly decreased
WBC in blood [8, 9]: significantly decreased
Lym in blood [8, 10]: significantly decreased
Neu in blood [8, 10]: significantly decreased
WBC in blood [8, 10]: significantly decreased
Lym in blood [8, 11]: significantly decreased
Neu in blood [8, 11]: significantly decreased
WBC in blood [8, 11]: significantly decreased
